Measurements from article PMC5962729 (Frontiers in Pharmacology, 2018).

Experiments:
[1] = test system: ANIT-induced cholestatic liver injury; assay: Serum biochemistry (ALT, AST, TBIL, DBIL, TBA) in ANIT-induced cholestatic liver injury; assay type: in vivo, rat
Experimental: Ltd. (Shanghai, China) and fed in the Laboratory Animal Center of Shanghai University of Traditional Chinese Medicine. […] The rats were randomly divided into six groups (n = 5 for each group). […] [Cao et al., 2017]). […] Before and 24 h after modeling, retro-orbital blood samples were collected in a coagulation tube, and they were then centrifuged at 4°C for 10 min (4000 rpm) to obtain the serum for the assay of ALT, AST, TBIL, DBIL, and TBA. At the end of the experiment, all rats were euthanized by CO2 inhalation. The serum samples were stored at -70°C until analysis, and liver samples were isolated and stored at -70°C for further analysis, whereas the central part of the right large lobe of the liver was used for histological examination.  FIGURE 2 The scheme of the animal experimental design. […] UDCA, positive control group treated with ursodeoxycholic acid (UDCA) (100 mg/kg, […].); […] A closed IV catheter system (Becton Dickinson, United States) was applied to cannulate the bile duct, and the bile specimens were collected into tubes at 2 h intervals for 6 h. The collected serum samples were maintained at room temperature to dissolve. The serum levels of ALT, AST, TBIL, DBIL, and TBA were then determined using a chemistry analyzer system (HITACHI 7080, Japan).

NTCP = assay: Expression level of NTCP in rat liver by UHPLC-MS/MS; assay type: in vivo
Experimental: (§1) Male Sprague Dawley rats (230 ± 20 g, 6–8 weeks of age) were purchased from B&K Laboratory Animal, Corp. Ltd. (Shanghai, China) and fed in the Laboratory Animal Center of Shanghai University of Traditional Chinese Medicine. All rats were allowed to acclimatize for 3 days before experimentation. The rats were randomly divided into six groups (n = 5 for each group). […] The rats in groups 4, 5, and 6 were intragastrically administered YCHD every 24 h for 10 consecutive days. The rats in group 3 were orally administered UDCA at a dose of 100 mg/kg every 24 h for 10 consecutive days, which is well-documented to treat induced liver injury and cholestasis ([Chen et al., 2016]; [Cao et al., 2017]). Moreover, groups 1 and 2 were intragastrically treated with physiological saline (0.9%) at a dose of 1 mL/100 g. […] At the end of the experiment, all rats were euthanized by CO2 inhalation. The serum samples were stored at -70°C until analysis, and liver samples were isolated and stored at -70°C for further analysis, whereas the central part of the right large lobe of the liver was used for histological examination. […]
(§2) Total membrane protein was isolated (in triplicate) from liver tissue according to the Native Membrane Protein Extraction Kit protocol. Subsequently, protein concentrations were determined by applying the BCA Protein Assay Kit. […]

OATP1A2 = assay: Expression level of OATP1A2 in rat liver by UHPLC-MS/MS; assay type: in vivo
Experimental: as §1, §2

MATE1 = assay: Expression level of MATE1 in rat liver by UHPLC-MS/MS; assay type: in vivo
Source text: Male Sprague Dawley rats (230 ± 20 g, 6–8 weeks of age) were purchased from B&K Laboratory Animal, Corp. Ltd. (Shanghai, China) and fed in the Laboratory Animal Center of Shanghai University of Traditional Chinese Medicine. All rats were allowed to acclimatize for 3 days before experimentation. The rats were randomly divided into six groups (n = 5 for each group). […]
Biotransformation of xenobiotics and endogenous compounds is a crucial step in the absorption and elimination of potentially harmful substances from the human body, a process that could be affected by the levels of pharmacokinetic enzymes and transporter proteins. […] Previous methods of protein quantification are immunological, such as immunoblotting ([Zhang et al., 2016]), […] and two-dimensional electrophoresis ([Bruschi et al., 2015]). […] A milestone in quantitative protein analysis was the introduction of mass spectrometry-based analysis using shotgun proteomic assays with relative protein quantification, which has advantages in terms of absolute accuracy, stability, operability, and efficiency over traditional quantitative methods ([Wang et al., 2015]). […]

[2] = UDCA 100 mg/kg i.g. daily 10 days, ANIT 50 mg/kg on day 8, serum
[3] = UDCA group, ANIT-treated rats, mean ± S.D.
[4] = UDCA-treated cholestatic rats, liver, as compared with the control group, p < 0.05

C[C@H](CCC(=O)O)[C@H]1CC[C@H]2[C@@H]3[C@@H](O)C[C@@H]4C[C@H](O)CC[C@]4(C)[C@H]3CC[C@]12C [UDCA, Ursodeoxycholic acid]
ALT [1, 2]: 400.6±200.0 IU/L | AST [1, 2]: 611.8±257.2 IU/L | DBIL [1, 2]: 21.2 ± 9.0 µmol/L | TBA [1, 2]: 428.1 ± 55.9 µmol/L | TBIL [1, 2]: 28.2 ± 19.0 µmol/L | serum TBA decreased to (printed), compared with the control group (printed) ([1]; UDCA 100 mg/kg, ANIT-treated rats, p < 0.001): 30.9% | serum DBIL decreased to (printed), compared with the control group (printed) ([1]; UDCA 100 mg/kg, ANIT-treated rats, p < 0.01): 40.9% | Ntcp expression level in rat liver (NTCP; [3]): 4.22±1.51 fmol/μg protein | NTCP level, fold higher (NTCP; [4]): 2.2 fold | Oatp1a2 expression level in rat liver (OATP1A2; [3]): 1.27±0.18 fmol/μg protein | OATP1A2 level, fold higher (OATP1A2; [4]): 1.5 fold | Mate1 expression level in rat liver (MATE1; [3]): 3.43±1.38 fmol/μg protein | MATE1 expression upregulated, fold (MATE1; UDCA-treated cholestatic rats, liver, not statistically significant): 1.7 fold
